The source of these data is article PMC3914206.

For the assay, the target named is T1, panel of 442 kinases (Homo sapiens, UniProt Q13546).
T1 construct: purchased KINOMEscan
T1 sequence (Q13546 1-671): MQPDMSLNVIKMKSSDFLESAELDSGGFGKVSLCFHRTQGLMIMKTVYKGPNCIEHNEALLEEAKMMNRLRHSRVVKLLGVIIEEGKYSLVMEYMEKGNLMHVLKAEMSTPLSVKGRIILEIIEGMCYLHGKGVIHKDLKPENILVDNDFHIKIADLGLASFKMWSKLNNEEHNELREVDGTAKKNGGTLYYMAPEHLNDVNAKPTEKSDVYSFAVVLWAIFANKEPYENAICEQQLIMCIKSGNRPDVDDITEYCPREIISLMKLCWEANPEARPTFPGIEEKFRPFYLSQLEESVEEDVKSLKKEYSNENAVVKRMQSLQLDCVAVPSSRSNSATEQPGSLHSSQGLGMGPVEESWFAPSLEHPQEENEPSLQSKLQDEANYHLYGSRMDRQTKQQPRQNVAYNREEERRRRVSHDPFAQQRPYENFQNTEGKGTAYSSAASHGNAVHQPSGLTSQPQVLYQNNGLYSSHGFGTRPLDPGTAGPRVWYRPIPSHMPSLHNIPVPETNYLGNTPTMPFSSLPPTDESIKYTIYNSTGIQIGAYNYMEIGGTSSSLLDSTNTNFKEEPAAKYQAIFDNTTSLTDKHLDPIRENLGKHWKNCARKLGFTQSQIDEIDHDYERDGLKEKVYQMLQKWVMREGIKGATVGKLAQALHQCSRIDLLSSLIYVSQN
The assay is classed as binding. The following applies: Compound Concentration 10 µM. An excerpt: We assessed the selectivity of members of this scaffold using the KINOMEscan methodology across a near comprehensive panel of 442 kinases [[18,27]].

For `COc1cc(C(=O)N2CCC(N3CCN(C)CC3)CC2)ccc1Nc1ncc2c(n1)N(C)c1ccccc1C(=O)N2C` [15 (LRRK2-IN-1)], the “KINOMEscan: RIPK1” value came out at 99.

On to `COc1cc(C(=O)N2CCC(N3CCN(C)CC3)CC2)ccc1Nc1ncc2c(n1)N1CCc3cccc(c31)C(=O)N2C` [Compound 24], for which the “KINOMEscan: RIPK1” value worked out at 76.

Take `COc1cc(C(=O)N2CCC(N3CCN(C)CC3)CC2)ccc1Nc1ncc2c(n1)N(C1CCCC1)c1ccccc1C(=O)N2C` [Compound 25, 11-cyclopentyl-2-((2-methoxy-4-(4-(4-methylpiperazin-1-yl)piperidine-1-carbonyl)phenyl)amino)-5-methyl-5H-benzo[e]pyrimido[5,4-b][1,4]diazepin-6(11H)-one]: the “KINOMEscan: RIPK1” value is recorded as 100.

For the molecule `CCOc1cc(C(=O)N2CCC(N3CCN(C)CC3)CC2)ccc1Nc1ncc2c(n1)N(C1CCCC1)c1ccccc1C(=O)N2C` [Compound 26], the “KINOMEscan: RIPK1” value was 100.
